Experimental data reported in publication PMC11061835, “Elucidating the Mechanism of Metabolism of Cannabichromene by Human Cytochrome P450s” (Journal of Natural Products, 2024).

Experiments:
CYP2C9 = test: CBC metabolism by CYP2C9; assay type: in vitro ADME, human
Protocol: To study the kinetics of CBC metabolism, concentration dependent metabolism of CBC was carried out in the presence of various CYPs using the following procedure. CYP2J2, CYP2C8, CYP2D6, CYP2C9, and CYP3A4 (final concentration 0.5 μM) were initially dissolved in lipid containing POPC:POPS (8:2 v/v) followed by addition of CPR (final concentration 0.6 μM) in 0.1 M potassium phosphate buffer (pH 7.4). CBC (5–80 μM) was added and incubated at 37 °C for 10 min. The reaction was triggered by NADPH and extracted using the exact sample protocol as mentioned in the HLM section.
Samples were analyzed with the 5500 QTRAP LC/MS/MS system (Sciex, Framingham, MA) in the Metabolomics Lab of Roy J. Carver Biotechnology Center, University of Illinois at Urbana–Champaign. Software Analyst 1.7.1 was used for data acquisition and analysis. The 1200 series HPLC system (Agilent Technologies, Santa Clara, CA) includes a degasser, an autosampler, and a binary pump. […] Multiple reaction monitoring (MRM) was used for quantitation: CBC m/z 315.1 → m/z 135.0; 1-acetoxy-6′,7′-dihydroxy-CBC (JM-I-73) m/z 349.1→ m/z 193.0; 1″-hydroxy-CBC (JM-I-66) m/z 331.1→ m/z 275.1; 6′,7′-epoxy-CBC (JM-I-27) m/z 331.1→ m/z 193.0; 7′,10′-ene-6′-hydroxy-CBC (JM-I-30) m/z 331.1→ m/z 193.0; 8′-hydroxy-CBC (JM-I-32) […]→ m/z 77.0. Internal standard EET-EA-d11 was monitored at m/z 375.2→ m/z 357.1.

[1] = In vivo metabolism of CBC, mouse blood plasma (LC-MS/MS); design: species or system mice
Protocol: CBC was dissolved in ethanol, and an aliquot was then mixed with Tween-80. Ethanol was removed by evaporation. The mixture was then reconstituted with PBS to a 6% final concentration of Tween-80. C 57BL/6J female mice, age 8–10 weeks, were injected with 20 mg/kg CBC or vehicle intravenously (IV, n = 3) via the tail vein or intraperitoneally (IP, n = 3). Blood samples were collected terminally by cardiac puncture into heparin-coated syringes at 0.5 and 2 h after CBC treatment and transferred into tubes. The tubes were then centrifuged, and plasma samples were removed and stored at −80 °C.
200 μL of blood plasma from each sample was taken into a glass tube, and 500 μL of extraction solvent (hexane:ethyl acetate 80:20 v/v) was added. The remaining extraction steps are similar to those used for CBC metabolite extraction from CYPs as mentioned earlier.
Samples were analyzed with the 5500 QTRAP LC/MS/MS system (Sciex, Framingham, MA) in the Metabolomics Lab of Roy J. Carver Biotechnology Center, University of Illinois at Urbana–Champaign. Software Analyst 1.7.1 was used for data acquisition and analysis. The 1200 series HPLC system (Agilent Technologies, Santa Clara, CA) includes a degasser, an autosampler, and a binary pump. The LC separation was performed on a Phenomenex Gemini C6-phenyl column (2 × 100 mm, 3 μm) with mobile phase A (0.1% formic acid in water) and mobile phase B (0.1% formic acid in acetonitrile). The flow rate was 0.2 mL/min. The linear gradient was as follows: 0–2 min, 95% A; 10 min, 50% A; 20–25 min, 0% A; 25.1–31 min, 95% A. The autosampler was set at 10 °C. The injection volume was 5 μL. Mass spectra were acquired under positive electrospray ionization (ESI) with the ion spray voltage of +5000 V. The source temperature was 400 °C. The curtain gas, ion source gas 1, and ion source gas 2 were 325, 65, and 55 psi, respectively. Multiple reaction monitoring (MRM) was used for quantitation: CBC m/z 315.1 → m/z 135.0; 1-acetoxy-6′,7′-dihydroxy-CBC (JM-I-73) m/z 349.1→ m/z 193.0; 1″-hydroxy-CBC (JM-I-66) m/z 331.1→ m/z 275.1; 6′,7′-epoxy-CBC (JM-I-27) m/z 331.1→ m/z 193.0; 7′,10′-ene-6′-hydroxy-CBC (JM-I-30) m/z 331.1→ m/z 193.0; 8′-hydroxy-CBC (JM-I-32) […]→ m/z 77.0. Internal standard EET-EA-d11 was monitored at m/z 375.2→ m/z 357.1.

CYP2C8 with CPR = molecular target: T1, CYP2C8 with CPR (Homo sapiens, UniProt P10632); test: NADPH activity assay, CYP2C8 with CPR; assay type: biochemical; details: CYP2C8, CBC 50 μM vs substrate-free
T1 construct: His-tag; made in house; host or cells: E. coli DH-5α with pTGro7 plasmid (CYP)
T1 sequence (P10632 1-490): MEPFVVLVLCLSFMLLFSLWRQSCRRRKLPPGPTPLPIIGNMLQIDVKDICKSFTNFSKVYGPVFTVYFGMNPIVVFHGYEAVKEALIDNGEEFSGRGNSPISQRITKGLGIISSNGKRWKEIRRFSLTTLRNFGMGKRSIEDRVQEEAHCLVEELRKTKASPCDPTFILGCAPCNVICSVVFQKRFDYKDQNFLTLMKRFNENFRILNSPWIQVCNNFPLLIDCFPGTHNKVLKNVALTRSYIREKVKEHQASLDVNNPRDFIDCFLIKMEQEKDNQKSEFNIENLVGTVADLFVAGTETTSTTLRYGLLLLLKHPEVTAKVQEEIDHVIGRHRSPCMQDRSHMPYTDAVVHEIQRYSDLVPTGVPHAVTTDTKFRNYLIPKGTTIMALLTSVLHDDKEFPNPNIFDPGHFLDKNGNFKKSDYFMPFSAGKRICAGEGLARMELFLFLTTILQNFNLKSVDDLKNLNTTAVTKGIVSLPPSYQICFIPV
T1 sequence (P16435 1-677 partner): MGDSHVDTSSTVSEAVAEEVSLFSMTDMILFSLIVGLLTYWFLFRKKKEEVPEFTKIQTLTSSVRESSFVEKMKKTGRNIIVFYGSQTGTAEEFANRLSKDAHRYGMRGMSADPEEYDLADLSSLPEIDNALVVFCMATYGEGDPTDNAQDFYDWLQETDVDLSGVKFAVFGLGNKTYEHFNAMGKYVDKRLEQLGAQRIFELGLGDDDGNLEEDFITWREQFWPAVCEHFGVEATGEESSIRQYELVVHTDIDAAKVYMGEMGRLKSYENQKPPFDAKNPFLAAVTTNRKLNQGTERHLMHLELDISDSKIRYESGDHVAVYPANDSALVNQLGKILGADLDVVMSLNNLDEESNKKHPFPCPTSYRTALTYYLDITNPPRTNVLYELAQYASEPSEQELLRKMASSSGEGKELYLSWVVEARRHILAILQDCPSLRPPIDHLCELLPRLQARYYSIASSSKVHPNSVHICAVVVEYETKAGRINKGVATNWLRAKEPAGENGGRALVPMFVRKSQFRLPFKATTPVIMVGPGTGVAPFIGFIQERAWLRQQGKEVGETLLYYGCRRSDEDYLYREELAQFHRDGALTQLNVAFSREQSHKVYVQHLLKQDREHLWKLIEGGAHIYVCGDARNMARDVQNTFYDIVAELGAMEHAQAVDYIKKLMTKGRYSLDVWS
Protocol: CYP-mediated NADPH oxidation was measured using kinetics mode in a Cary 300 UV–vis spectrometer (Agilent Technologies). 0.2 μM (final concentration) of CYP was taken in 0.1 M potassium phosphate buffer (pH 7.4) and incubated with 0.6 μM (final concentration) of CPR for 5 min with a reaction volume of 400 μL. The reaction was initiated with 200 μM of NADPH, and the absorption change was monitored over 10 min at 340 nm. The rate of NADPH consumption (or NADPH to NADP^+ conversion) was calculated by taking the molar extinction coefficient as 6.22 mM^–1 cm^–1 at 340 nm. To estimate the change in NADPH oxidation in the presence of CBC, both CYP and CPR were further incubated using CBC (final concentration 50 μM) for 5 min followed by measuring the change in absorbance at 340 nm as discussed earlier.

Compound	extent of 8′-hydroxy-CBC formation relative to 6′,7′-epoxy-CBC (CYP2C9)	detection as product of CBC metabolism in mouse plasma ([1]; mice, CBC 20 mg/kg IV or IP, plasma at 0.5 and 2 h)	detection in blood plasma after 2 h of CBC administration ([1]; mice, both IP and IV, 2 h)	plasma concentration relative to the 6′,7′-epoxy compound ([1]; mouse plasma 0.5 h after CBC 20 mg/kg, depending on mode of administration (IP or IV))	percentage increase of NADPH consumption in the presence of CBC (CYP2C8 with CPR) [%]
CCCCCc1cc(O)c2c(c1)OC(C)(CC/C=C(\C)CO)C=C2 (centres unmarked) [8′-hydroxy-CBC]	approximately half	detected	not detected	4–8 times	–
CCCCCc1cc(O)c2c(c1)OC(C)(CCC=C(C)C)C=C2 (centres unmarked) [CBC, Cannabichromene]	–	–	–	–	~60
